The source of these data is patent US20260258351A1, “METHOD FOR DIFFERENTIATING VISCERAL SENSORY NEURONS FROM HUMAN INDUCED PLURIPOTENT STEM CELLS” (SEOUL NATIONAL UNIVERSITY R&DB FOUNDATION, priority 2022, published 2026).

The assay has as its system induced-Visceral sensory neurons (i-VSN). Description: Live cell calcium imaging of induced-Visceral sensory neurons after compound treatment. The format is cell-based, human. The note with it: real-time calcium imaging, FLIPR Calcium 6 Assay Kit, FIGS. 7a-7f. Here is the method: For Live cell calcium imaging, the FLIPR Calcium 6 Assay Kit ([…], Molecular Devices) was used. The overall steps were performed according to the manufacturer's protocol. The test solution, in which components A and B were mixed, was incubated in an incubator at 37° C. for 2 hours, and during this process, the carbon dioxide concentration was maintained at 5%. Then, after treatment with a fluorescent substance, the fluorescence signal was detected for 5 minutes using an EVOS live imaging system (Thermo-Fisher) capable of maintaining a temperature of 37° C., a 5% carbon dioxide concentration, and 80% humidity. The detected signals were obtained by video or continuous snapshots (once per second). In order to confirm the functional aspect of the induced Visceral sensory neurons, the changes in the activity of the neurons were measured using a real-time calcium imaging technique after treating the Visceral sensory neurons with various compounds known to stimulate the same. A total of three compounds (i.e., liraglutide, CCK-8, and capsaicin) were used. Liraglutide corresponds to an agonist of GLP1R and is known to activate the nodose ganglion. […] CCK-8 is an agonist of the CCK receptor and is known to be able to stimulate the nodose ganglion as well. […] Capsaicin is a compound that has excitotoxicity toward TRPV1 and is known to detect pain and heat sensations in the nodose ganglion. […]

Turning to `COc1cc(CNC(=O)CCCC/C=C/C(C)C)ccc1O` [Capsaicin], the “change in neuron activity (calcium signal) after treatment” value is “induced the activity”.

Turning to CCK-8, the “change in neuron activity (calcium signal) after treatment” value is “calcium signal was amplified”.
